According to article PMC6396489 (Cell Communication and Signaling : CCS, 2019):
Entries after “also recorded” stand apart in the source; their conditions may differ.

Legend:
Shp1 = biological target: T1, Shp1 (Homo sapiens, UniProt P29350); assay: Isothermal titration calorimetry, Shp1 WT; type: binding; conditions: Ins4P 50 µM (Fig. S2)
T1 construct: the C-terminal truncated form of human Shp1 cDNA (His-Shp1; amino acids 1–529); made in house; host or cells: E. coli BL21(DE3)
T1 sequence (P29350 1-529 isoform P29350-3): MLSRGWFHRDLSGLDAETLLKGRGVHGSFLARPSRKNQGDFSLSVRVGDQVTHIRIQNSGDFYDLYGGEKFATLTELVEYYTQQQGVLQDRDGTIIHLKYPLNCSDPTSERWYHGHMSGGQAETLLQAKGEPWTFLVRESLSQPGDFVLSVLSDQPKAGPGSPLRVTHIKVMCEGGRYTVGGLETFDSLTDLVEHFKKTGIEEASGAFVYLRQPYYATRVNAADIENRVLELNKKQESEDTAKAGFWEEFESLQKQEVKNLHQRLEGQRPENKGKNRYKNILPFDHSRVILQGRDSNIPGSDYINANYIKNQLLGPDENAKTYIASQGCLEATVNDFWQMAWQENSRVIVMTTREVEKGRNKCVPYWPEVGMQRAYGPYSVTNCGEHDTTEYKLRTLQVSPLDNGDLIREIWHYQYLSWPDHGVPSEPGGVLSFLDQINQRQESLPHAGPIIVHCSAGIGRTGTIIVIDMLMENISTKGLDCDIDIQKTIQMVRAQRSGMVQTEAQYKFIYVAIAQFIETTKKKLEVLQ
Method: ITC measurements were performed by using a Nano-ITC III (TA instruments, New Castle, DE, USA) with a reaction cell volume of 1 ml kept at 25 °C. A protein solution of 10 μM was titrated into the calorimetric cell with a solution of 50–100 μM of the ligand GroPIns4P (Ins4P) in the syringe. A sequence of 16 injections of 15 μL volume was programmed with a stirring speed of 250 rpm at 500 s intervals. Protein samples were prepared with protein solutions at 25 °C in 20 mM Tris buffer pH 7.4 with 50 mM NaCl and 1 mM TCEP. To minimise the differences in buffer composition and pH between cell and syringe, both ligand and protein solutions were prepared with the same batch of buffer. The heat of dilution of the GroPIns4P into the buffer solution was measured in a separate experiment and appropriate corrections were made. The heat evolved after each ligand injection was obtained from the integral of the calorimetric signal. Raw data were integrated, corrected for non-specific heats and normalized for concentration. The equilibrium dissociation constant (KD), binding enthalpy (ΔbH) and binding stoichiometry (n) were obtained by nonlinear regression of the experimental data using a model of independent binding sites, by means of the NanoAnalyze software. Experiments were performed in duplicate.

actin cytoskeleton = test system: actin cytoskeleton; set-up: method as in PMID 12589050; conditions: cited from earlier work
NIH3T3 cells [1] = assay: Immunofluorescence analysis for membrane ruffling; type: cell-based; conditions: for effect of pre-treatment on peripheral ruffles in response to GroPIns4P: with 50 μM GroPIns4P for 5 min
Method: NIH3T3 and Raw 264.7 cells were cultured in DMEM supplemented with 2 mM L-glutamine, 50 U/mL penicillin, […] streptomycin, and 10% CS or heat-inactivated FBS (30 min at 55 °C), respectively. NIH3T3 cells were transfected with different plasmids using the Lipofectamine LTX/plus reagent according to the manufacturer’s instructions. For immunofluorescence experiments, NIH3T3 cells were seeded onto glass coverslips in 24-well plates at a concentration suitable for 70% confluence without transfection or 50% confluence in the case of Lipofectamine-based cell transfection. In the latter, approximately 24 h after seeding, NIH3T3 cells were transiently transfected with different plasmids with the Lipofectamine LTX/plus reagent following the manufacturer’s instructions. Before treatments, NIH3T3 cells were serum-starved in DMEM with 2 mM glutamine, 50 U/mL penicillin and streptomycin for 16–20 h. The cells were then treated with different stimuli and/or inhibitors, as indicated in the text and/or Figure legends. Addition of exogenous GroPIns4P was at 50 μM (unless otherwise indicated), a concentration eliciting an intracellular concentration of about 1.5 μM, as calculated from the Nernst equation (with T = 300 K, z = − 3, and Veq = − 30 mV, an average value for cultured, non-excitable cells).
For ruffle assessment after treatments, immunofluorescence labelling and morphological analysis of the cells were performed as previously described in a double-blind fashion. In brief, the assessment was based on a null score (zero) for the absence of the feature, followed by a score of one or two according to the level of response of each individual cell, where one indicate that ruffling was confined to one area of the cell (< 25% of the cell circumference), and two indicate that two or more discrete areas of the cell contained ruffles. The cell phenotypes were quantified by counting 150 cells in each sample. The data were then expressed as percentage scores (±SD) for each treatment response compared with its respective control. Scoring of the control cells was performed in the same way to evaluate the presence of the features of interest in untreated cells.

NIH3T3 cells [2] = assay: Wound-healing assay; type: cell-based; conditions: for effect on GroPIns4P-stimulated wound closure: 50 μM GroPIns4P
Method: To perform the wound-healing assay, NIH3T3 cells were seeded in 6-well tissue culture plates to a final density of 3 × 10^5 cells/well and maintained at 37 °C and 5% CO2 for 24 h until confluence before being starved overnight in DMEM containing 1% bovine serum. The cell monolayer was wounded by scratching with a 10 μL standard sterile pipette tip. The scratched monolayer was rinsed twice with DMEM containing 1% bovine serum to remove cell debris and incubated with or without 50 μM GroPIns4P. […] In detail, the input image was processed by applying a Sobel edge detector [26], obtaining a gradient image. A threshold process was then performed on the gradient image to obtain the foreground corresponding to the wound area. Particularly, all of the pixels of the gradient image with values less than the threshold θ were assumed to be pixels of the foreground (experimentally, θ is set to 4). Finally, procedures based on morphological operations were used to remove small regions and to fill holes of the wound area to complete detection and analysis.

O=P(O)(O)OC1[C@@H](O)[C@@H](O)C(O)[C@H](O)[C@H]1O (stereo partly shown) [Ins4P, Inositol 4-phosphate, reference compound]
binding to Shp1 by ITC (Shp1): did not indicate any specific binding; also recorded: no binding was resolved | effect on actin cytoskeleton organisation (actin cytoskeleton): no effect

O=S(=O)(O)c1ccc2cc(N=Nc3cc(S(=O)(=O)O)c4cccnc4c3O)ccc2c1 [NSC-87877]
effect of pre-treatment on peripheral ruffles in response to GroPIns4P (NIH3T3 cells [1]): strongly impair | reduction of EGF-induced cell migration (NIH3T3 cells [2]; 100 μM, EGF 10 ng/ml): ~100% | effect on GroPIns4P-stimulated wound closure (NIH3T3 cells [2]; pre-treatment 100 μM): completely abrogated

O=C1C=CC(=O)C(c2cc(Cl)ccc2Cl)=C1 [TPI-1]
effect of pre-treatment on peripheral ruffles in response to GroPIns4P (NIH3T3 cells [1]): strongly impair | reduction of EGF-induced cell migration (NIH3T3 cells [2]; 25 μM, EGF 10 ng/ml): 50% | effect on GroPIns4P-stimulated wound closure (NIH3T3 cells [2]; pre-treatment 25 μM): completely abrogated

CCCCC/C=C\C/C=C\C/C=C\C/C=C\CCCC(=O)O [arachidonic acid]
effect on EGF-induced cell motility (NIH3T3 cells [2]; 10–50 μM): did not affect | effect when combined with the PLA2 inhibitor in EGF-stimulated cells (NIH3T3 cells [2]; EGF 10 ng/ml, cPLA2α inhibitor, arachidonic acid): minor inhibitory effect

EGF: Epidermal growth factor
cell migration (NIH3T3 cells [2]; 10 ng/ml EGF): significant increase

PDGF
effect of Shp1-C455S overexpression on PDGF-induced ruffles (NIH3T3 cells [1]; 10 ng/ml PDGF): not affected | increase in ruffles versus the control (NIH3T3 cells [1]; 10 ng/ml PDGF for 5 min, positive control): 3.5–4 fold
